Results taken from ChEMBL document CHEMBL1151245, “Structures and histamine release inhibitory effects of prenylated orcinol derivatives from Rhododendron dauricum” (J Nat Prod, 2004).

Test system: Mast cell; call rule not given here
Assay: Inhibition of compound 48/80-induced histamine release in Wistar rat peritoneal mast cells
Format: functional, cell-based

| Structure (SMILES) | IC50 |
| --- | --- |
| CC(C)=CCC/C(C)=C/CC[C@]1(C)C=Cc2c(O)cc(C)cc2O1 [CONFLUENTIN] | 205 µM |
| C=C(C)C(O)CC/C(C)=C/CC[C@]1(C)C=Cc2c(O)cc(C)cc2O1 (stereo partly drawn) [DAURICHROMENE A] | 1.6 µM |
| C=C(CCC=C(C)C)C(O)CC[C@]1(C)C=Cc2c(O)cc(C)cc2O1 (stereo partly drawn) [DAURICHROMENE B] | 4.4 µM |
| C/C(=C\CC[C@]1(C)C=Cc2c(O)cc(C)cc2O1)C/C=C\C(C)(C)O [DAURICHROMENE C] | 87.4 µM |
| C/C(=C\CC/C(C)=C/CC[C@]1(C)C=Cc2c(O)cc(C)cc2O1)CO [DAURICHROMENE D] | 1.3 µM |
| CC(C)=CCC/C(C)=C/CC/C(C)=C/Cc1c(O)cc(C)cc1O [GRIFOLIN] | 81.6 µM |
| COc1ccc2c(c1)c(CC(=O)O)c(C)n2C(=O)c1ccc(Cl)cc1 [INDOMETHACIN] | 250 µM |
| Cc1cc(O)cc(O)c1 [ORCINOL] | Not Active |
